Columns and labels:
Type in all cases: in vivo
[1] = test system: Mugwort (Artemisia vulgaris L.); assay: Example 3: container-grown mugwort, spray treatment, necrosis and control; conditions: DMA 1.5 % W/W, 40 gal/A spray; for % Necrosis Day 1: Day 1, glyphosate 0.5 % W/W; for % Necrosis Day 3: Day 3, glyphosate 0.5 % W/W; for % Control Day 9: Day 9, glyphosate 0.5 % W/W; for % Control Day 12: Day 12, glyphosate 0.5 % W/W; for % Control Day 15: Day 15, glyphosate 0.5 % W/W; for % Control Day 19: Day 19, glyphosate 0.5 % W/W
Procedure: Mugwort (Artemisia vulgaris L.) rhizomes 2 to 3 inches in length were collected from established plants and planted into soil-less media in 16 fl. oz. size containers. Each container was a replicate and contained one plant. On Day 0, 14 to 18 inch height single stem plants of mugwort were treated with the solutions shown in Table 1 with calibrated hand pump sprayers with constant agitation. Each plant was sprayed with 14 hand pumps for a nominal 40 gal/A spray volume application. Treatments were irrigated and fertilized as needed.

a variety of weeds = assay: Example 1: whole plot, summary of visual effect in words; conditions: Example 1 plot; after one day
Procedure: A quart of glyphosate herbicide was prepared using the label recommendations of the manufacturer (Monsanto) by adding 18 ml. (0.625 liq. oz.) of “Roundup® Super Concentrate” (41% isopropyl glyphosate), to water and bringing the final solution to 32 oz. liquid (Sol. A). To another 18 ml. of “Roundup Concentrate” was added 18 ml. of dimethyl azelate and this mixture diluted with water to 32 liq. oz. (Sol. B). Thus, each solution contained the same amount of glyphosate while Sol. B also contained 2% dimethyl azelate.
Sol. A was applied with a hand sprayer on a 2 ft. by 3 ft. plot of ground containing a variety of weeds. Sol. B was applied in the same manner on a similar adjacent plot containing the same variety of weeds. The temperature was in the mid-80's (° F.) during the test period with no rain.
The test plots were observed daily.

target weed = assay: General observations on time to necrosis or kill of weeds
Velvetleaf = assay: Example 4: container-grown velvetleaf, backpack sprayer, necrosis and control; conditions: for % Necrosis After 1 Day / % Control 5 Days / % Control 9 Days / % Control 21 Days: velvetleaf, chlorimuron 0.31 lb.ai/A, dimethyl azelate 1.5 % W/W, 12 gal/A spray
Procedure: Chlorimuron is a sulfonylurea-type postemergence herbicide, sold by duPont under the trade name “Classic”. Dimethyl azelate (80% technical grade with 20% emulsifier) was added with the dilute herbicidal spray solution to determine if the rapidity and effectiveness of weed control was improved. A single nozzle flat fan wand backpack sprayer with C02 propellant calibrated for 12 gal/A spray volume was used to apply the treatments with a handheld wand applicator and constant walking speed. Velvetleaf plants of 6 to 8 inch height with 3 plants per 16 fl oz container in soil-less media were treated with the mixtures shown in the table below. Each treatment was applied to 3 containers to provide 3 replications per treatment. The dilute spray solutions were agitated during application. The effects of the treatment were observed daily for 21 days with the following results: […]

Rye (Secale cereale L) = assay: Example 6 Study 1: container-grown rye, spray treatment, necrosis and control; conditions: sethoxydin 0.01 % W/W, dimethyl azelate 3 % W/W, 25 gal/Acre spray; for % Necrosis After 3 Day: 3 days
Procedure: Rye (Secale cereale L) was grown in 16 fl. oz. containers in soil less media until 4 inches in height and then treated with the herbicidal compositions shown in Table 1 by spraying the herbicidal compositions with 4 pumps of a calibrated hand pump sprayer. The spray volume delivered was 25 gal/Acre. The containers contained approximately 12 rye plants per pot and each container was one replication. Treatments were in full sun with no wind. The effects of the treatments were observed over 3 weeks with the following results recorded: Sethoxydin, a cyclohexadione class herbicide, was obtained from BASF Corp. as “Poast”. The dimethyl azelate was a technical grade obtained from Cognis Corp.

corn (Zea mays L.) = assay: Example 6 Study 2: potted corn, spray treatment, necrosis and control; conditions: sethoxydin 0.01 % W/W, dimethyl azelate 3 % W/W, 13 gal/A spray; for % Necrosis After 3 Day: 3 days
Procedure: Rye (Secale cereale L) was grown in 16 fl. oz. containers in soil less media until 4 inches in height and then treated with the herbicidal compositions shown in Table 1 by spraying the herbicidal compositions with 4 pumps of a calibrated hand pump sprayer. The spray volume delivered was 25 gal/Acre. The containers contained approximately 12 rye plants per pot and each container was one replication. Treatments were in full sun with no wind. The effects of the treatments were observed over 3 weeks with the following results recorded: Sethoxydin, a cyclohexadione class herbicide, was obtained from BASF Corp. as “Poast”. The dimethyl azelate was a technical grade obtained from Cognis Corp. Another identical study was conducted with corn (Zea mays L.) with 3 plants per pot and 2 replications. The treatments were applied as 2 pumps per pot for a 13 gal/A spray volume to 6 inch height corn plants.

[2] = test system: Momingglory, pitted (Ipomoea lacunosa L.); assay: Example 5: potted pitted morningglory, spray treatment, epinasty and control; conditions: DMA 2.0 % W/W, 12 gpa spray
Procedure: Momingglory, pitted (Ipomoea lacunosa L.) was seeded into soil-less media in 16 fl oz plastic pots with 3 plants established per pot. Each pot was a replication. When the morningglory plants had two true leaves, control treatments were applied by 2 manual hand pumps from a calibrated hand-pump sprayer. The spray application was a nominal 12 gpa spray volume. The Day 0 treatments were applied as 2 replications with constant agitation of the dilute spray solution. Treatments were evaluated for a 21 day interval after application as follows: […]

| SMILES | % Necrosis Day 1 [1] [%] | % Necrosis Day 3 [1] [%] | % Control Day 9 [1] [%] | % Control Day 12 [1] [%] | % Control Day 15 [1] [%] | % Control Day 19 [1] [%] | % Necrosis After 1 Day (Velvetleaf) [%] | % Control 5 Days (Velvetleaf) [%] | % Control 9 Days (Velvetleaf) [%] | % Control 21 Days (Velvetleaf) [%] | % Necrosis After 1 Day (Rye (Secale cereale L)) [%] | % Necrosis After 3 Day (Rye (Secale cereale L)) [%] | % Control 5 Days (Rye (Secale cereale L)) [%] | % Control 9 Days (Rye (Secale cereale L)) [%] | % Control 21 Days (Rye (Secale cereale L)) [%] | % Necrosis After 1 Day (corn (Zea mays L.)) [%] | % Necrosis After 3 Day (corn (Zea mays L.)) [%] | % Control 5 Days (corn (Zea mays L.)) [%] | % Control 9 Days (corn (Zea mays L.)) [%] | % Control 21 Days (corn (Zea mays L.)) [%] | further results |
| --- | --- | --- | --- | --- | --- | --- | --- | --- | --- | --- | --- | --- | --- | --- | --- | --- | --- | --- | --- | --- | --- |
| O=C(O)CNCP(=O)(O)O [Glyphosate] | 0 | 0 | 53 | 100 | 100 | 100 | – | – | – | – | – | – | – | – | – | – | – | – | – | – | visual effect on the weeds of the plot, in words (a variety of weeds): unaffected; time for weed and grass necrosis to approach 100% (target weed; without the addition of dimethyl azelate): 3 to 4 days; minimal necrosis times (target weed; without the diester): three to four |
| COc1cc(Cl)nc(NC(=O)NS(=O)(=O)c2ccccc2C(=O)O)n1 [Chlorimuron] | – | – | – | – | – | – | 0 | 48 | 53 | 23 | – | – | – | – | – | – | – | – | – | – | – |
| CCC/C(=N\OCC)C1=C(O)CC(CC(C)SCC)CC1=O (stereo not shown) [Sethoxydin] | – | – | – | – | – | – | – | – | – | – | 0 | 3 | 24 | 79 | 94 | 0 | 3 | 10 | 40 | 88 | – |
| COC(=O)CCCCCCCC(=O)OC [DMA, Dimethyl azelate] | 49 | 53 | 33 | 21 | 18 | 13 | 0 | 0 | 0 | 0 | 13 | 15 | 8 | 0 | 0 | 18 | 15 | 13 | 0 | 0 | response of velvetleaf, in words (Velvetleaf; dimethyl azelate alone, 1.5 % W/W): tolerant; % Epinasty Day 5 (leaf distortion and downward twisting) ([2]; Day 5, 2,4-D ester 0.3 % W/W): 5%; % Control Day 7 ([2]; Day 7, 2,4-D ester 0.3 % W/W): 3%; % Control Day 10 ([2]; Day 10, 2,4-D ester 0.3 % W/W): 0%; % Control Day 14 ([2]; Day 14, 2,4-D ester 0.3 % W/W): 0%; % Control Day 21 ([2]; Day 21, 2,4-D ester 0.3 % W/W): 0% |
